In paper PMC11099041, “Tissue distribution and retention drives efficacy of rapidly clearing VHL-based PROTACs” (Communications Medicine, 2024):
Where “and” joins values, the source holds several entries; their conditions need not be identical. Equal entries are not always repeated.

Columns and labels:
[1] = Body weight in mouse efficacy study; type: in vivo; conditions: in g (unit assumed)
Experimental: Female C.B-17 SCID (Inbred) mice that weighed 16–20 g were inoculated with 10 million HCC2302 lung adenocarcinoma cells (suspended in a mixture of Hank’s Balanced Salt Solution containing Matrigel at a 1:1 ratio) in the right flank subcutaneously. Tumors were monitored until they reached a mean tumor volume of 110–167 mm^3. The mean tumor volume across all three groups was 141 ± 16.64 mm^3 (mean ± SD) at the initiation of dosing (Study WF-31, n = 10). […] Tumor volumes were measured in two dimensions (length and width) using Ultra Cal-IV calipers. The tumor volume was calculated with the following formula: Tumor size (mm^3) = (longer measurement × shorter measurement^2)/2. Animal body weights were measured using an Adventura scale. Percent weight change was calculated using the following formula: Group percent weight change = (new weight − initial weight)/ initial weight) × 100%.
In a separate study, tumors were monitored until they reached a mean tumor volume of 121–159 mm^3. The mean tumor volume across all three groups was 138 ± 10.26 mm^3 (mean ± SD) at the initiation of dosing (Study WF-34, n = 10).

[2] = In vitro metabolism in human hepatocytes; conditions: incubations with hepatocytes and microsomes of rats and humans
Experimental: Hepatocyte cell count was ~1.1–1.8 × 10^6 cells/mL. After 3 h, samples were quenched with 3 volumes of acetonitrile, vortex mixed, and centrifuged. The supernatant (5 µL) was analyzed by LC-MS using a Kinetex EVO C18 column (1.7 μm, 2.1 × 150 mm) at 40 °C with a flow rate of 0.4 mL/min. Mobile phase A was 20 mM ammonium acetate in water, and mobile phase B was acetonitrile. The column was initially held at 5% B for 2 min, increased to 75% B over 33 minutes, and then increased to 95% B over 3 min, where it was maintained for 3 minutes before returning to 5% B over 0.5 min for re-equilibration. Mass spectrometry data was acquired using positive ion mode and data-dependent MS^2 acquisition.

CYP1A2 = target: T1, CYP1A2 (Homo sapiens, UniProt P05177); test: Reversible P450 inhibition in HLM; type: biochemical; conditions: human liver microsomes, pH 7.4, probe tacrine, substrate Tacrine
T1 construct: phosphate buffer (100 mM, pH 7.4) containing human liver microsomes (HLM); from tissue; host or cells: human liver microsomes
T1 sequence (P05177 1-516): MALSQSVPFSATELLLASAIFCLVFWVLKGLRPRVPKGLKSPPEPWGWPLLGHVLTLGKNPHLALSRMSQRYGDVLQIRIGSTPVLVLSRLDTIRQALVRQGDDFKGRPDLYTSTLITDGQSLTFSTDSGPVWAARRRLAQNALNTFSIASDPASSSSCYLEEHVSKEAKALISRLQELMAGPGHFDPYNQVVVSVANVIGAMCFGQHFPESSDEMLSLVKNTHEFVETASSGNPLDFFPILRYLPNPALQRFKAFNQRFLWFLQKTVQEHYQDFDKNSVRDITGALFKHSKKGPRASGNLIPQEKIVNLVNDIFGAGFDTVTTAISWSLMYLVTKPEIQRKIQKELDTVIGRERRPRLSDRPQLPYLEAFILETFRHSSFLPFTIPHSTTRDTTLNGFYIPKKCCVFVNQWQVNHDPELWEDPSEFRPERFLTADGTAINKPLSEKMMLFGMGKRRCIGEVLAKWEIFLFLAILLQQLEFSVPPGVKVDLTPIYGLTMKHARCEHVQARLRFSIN
Experimental: (§1) The reversible P450 inhibition assay was conducted in triplicate on a BioCel 1200 System, V11 (Agilent, CA), as previously described by Kosaka, et al.[28] […] Individual P450 specific substrates included midazolam for CYP3A4/5, dextromethorphan for CYP2D6, S-(+)-mephenytoin for CYP2C19, S-(-)-warfarin for CYP2C9, paclitaxel for CYP2C8, and tacrine for CYP1A2. P450 activity was expressed as the peak area ratio of a P450-specific metabolite formed relative to its internal standard, and inhibition percentage was calculated from P450 activity of samples relative to the solvent control. Inhibition data were processed using Prism (GraphPad Software, San Diego, CA) to calculate IC50 values for each P450 enzyme.

CYP2C8 = target: T2, CYP2C8 (Homo sapiens, UniProt P10632); test: Reversible P450 inhibition in HLM; type: biochemical; conditions: human liver microsomes, pH 7.4, probe paclitaxel, substrate Paclitaxel
T2 construct: phosphate buffer (100 mM, pH 7.4) containing human liver microsomes (HLM); from tissue; host or cells: human liver microsomes
T2 sequence (P10632 1-490): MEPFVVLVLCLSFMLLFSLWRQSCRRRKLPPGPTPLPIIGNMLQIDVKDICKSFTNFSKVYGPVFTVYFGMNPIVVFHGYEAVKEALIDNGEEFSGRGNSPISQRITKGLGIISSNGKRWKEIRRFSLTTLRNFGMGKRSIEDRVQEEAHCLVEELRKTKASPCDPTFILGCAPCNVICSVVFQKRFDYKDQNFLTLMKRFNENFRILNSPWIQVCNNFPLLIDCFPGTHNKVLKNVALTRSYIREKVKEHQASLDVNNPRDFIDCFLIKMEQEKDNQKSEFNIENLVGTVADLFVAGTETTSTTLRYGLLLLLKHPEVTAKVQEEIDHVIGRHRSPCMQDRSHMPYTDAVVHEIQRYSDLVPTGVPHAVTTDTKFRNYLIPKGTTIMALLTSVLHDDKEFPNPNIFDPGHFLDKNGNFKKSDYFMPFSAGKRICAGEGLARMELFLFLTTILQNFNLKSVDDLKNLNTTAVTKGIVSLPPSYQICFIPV
Experimental: as §1

CYP2C19 = target: T3, CYP2C19 (Homo sapiens, UniProt P33261); test: Reversible P450 inhibition in HLM; type: biochemical; conditions: substrate Mephenytoin
T3 construct: phosphate buffer (100 mM, pH 7.4) containing human liver microsomes (HLM); from tissue; host or cells: human liver microsomes
T3 sequence (P33261 whole entry): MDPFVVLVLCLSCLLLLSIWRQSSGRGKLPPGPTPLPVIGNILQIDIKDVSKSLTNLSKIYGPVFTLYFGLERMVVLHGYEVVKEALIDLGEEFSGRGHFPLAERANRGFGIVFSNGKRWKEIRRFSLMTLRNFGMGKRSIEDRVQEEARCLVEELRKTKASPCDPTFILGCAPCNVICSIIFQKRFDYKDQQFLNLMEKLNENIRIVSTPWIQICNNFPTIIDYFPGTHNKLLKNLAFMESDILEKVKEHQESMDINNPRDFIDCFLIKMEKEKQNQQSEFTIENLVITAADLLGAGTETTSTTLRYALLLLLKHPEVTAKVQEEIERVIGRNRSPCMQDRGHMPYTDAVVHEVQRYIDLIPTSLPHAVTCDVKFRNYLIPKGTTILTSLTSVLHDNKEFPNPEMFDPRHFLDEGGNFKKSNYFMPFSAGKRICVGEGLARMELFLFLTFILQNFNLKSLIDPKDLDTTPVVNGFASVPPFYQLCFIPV
Experimental: as §1

CYP2C9 = target: T4, CYP2C9 (Homo sapiens, UniProt P11712); test: Reversible P450 inhibition in HLM; type: biochemical; conditions: human liver microsomes, pH 7.4, probe S-(-)-warfarin
T4 construct: phosphate buffer (100 mM, pH 7.4) containing human liver microsomes (HLM); from tissue; host or cells: human liver microsomes
T4 sequence (P11712 whole entry): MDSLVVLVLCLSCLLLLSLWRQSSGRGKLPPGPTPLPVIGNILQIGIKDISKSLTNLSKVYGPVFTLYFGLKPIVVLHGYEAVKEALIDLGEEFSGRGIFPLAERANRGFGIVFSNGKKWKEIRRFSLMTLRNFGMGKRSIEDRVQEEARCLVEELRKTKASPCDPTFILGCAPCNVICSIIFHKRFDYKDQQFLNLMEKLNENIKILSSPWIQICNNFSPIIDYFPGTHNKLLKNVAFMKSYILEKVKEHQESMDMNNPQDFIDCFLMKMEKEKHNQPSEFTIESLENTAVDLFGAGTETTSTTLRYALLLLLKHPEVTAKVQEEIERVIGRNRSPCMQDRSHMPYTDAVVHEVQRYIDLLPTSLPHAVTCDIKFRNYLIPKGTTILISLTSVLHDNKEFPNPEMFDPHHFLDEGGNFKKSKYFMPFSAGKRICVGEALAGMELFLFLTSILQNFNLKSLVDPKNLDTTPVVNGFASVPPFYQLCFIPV
Experimental: as §1

With Cc1ncsc1-c1ccc(C(C)NC(=O)C2CC(O)CN2C(=O)C(c2cc(N3CCC(CN4CCC(OC5CC(Oc6cc(N7C8CCC7CN(c7cc(-c9ccccc9O)nnc7N)C8)ccn6)C5)CC4)CC3)no2)C(C)C)cc1 (stereo not drawn) [A947] the “Body weight (mean)” value ([1]; WF-31, 20 mg/kg IV QW, day 0, 3, 7, 10, 13, 14, 21) was 19.00 and 19.30 and 19.20 and 19.50, the “Body weight (mean)” value ([1]; WF-31, 40 mg/kg IV QW, day 0, 3, 7, 10, 13, 14, 21) was 18.67 and 18.78 and 18.56 and 17.67 and 19.40 and 18.60 and the “Body weight (mean)” value ([1]; WF-34, 40 mg/kg IV QW, day 0, 4, 8, 11, 15, 18, 22, 25, 29) was 21.10 and 20.20 and 21.22 and 21.33 and 21.89 and 20.33 and 21.25 and 21.50. The Compound metabolized [2] was under 10%, the IC50 (CYP1A2) was over 10 µM and the IC50 (CYP2C8) was over 10 µM. It also gave an IC50 (CYP2C19; human, human liver microsomes, pH 7.4, probe S-(+)-mephenytoin) of 3 µM, an IC50 (CYP2C19) of about 3 µM and an IC50 (CYP2C9) of over 10 µM.
